Where “and” joins values, the source holds several entries; their conditions need not be identical. Identical values can stand only once.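 Protocol summary: plate cells (96-well), add compound at 5 concentrations, incubate 48 h, interpolate endpoints linearly. At the GI50, growth is halved. At the TGI there is no net growth.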
Tests used:
Experiment in all cases: DTP human tumour cell line panel, 48 h
[1] = tested on: SF-295 CNS
[2] = tested on: UACC-62 melanoma
[3] = tested on: PC-3 prostate
[4] = tested on: SNB-19 CNS
[5] = tested on: HT29 colon
[6] = tested on: HOP-92 NSCLC
[7] = tested on: HS 578T breast
[8] = tested on: IGROV1 ovarian
[9] = tested on: HCC-2998 colon
[10] = tested on: SW-620 colon

SMILES | GI50 [1] | TGI [1] | GI50 [2] | TGI [2] | GI50 [3] | TGI [3] | GI50 [4] | TGI [4] | GI50 [5] | TGI [5] | GI50 [6] | TGI [6] | GI50 [7] | TGI [7] | GI50 [8] | TGI [8] | GI50 [9] | TGI [9] | GI50 [10] | TGI [10]
COc1cc(F)cc([C@@H](CO)NC(=O)[C@@H](C)N2Cc3ccc(-c4nc(NC5CCOCC5)ncc4Cl)cc3C2=O)c1 | 14.7 µM | 85.4 µM | < 0.01 µM | 0.0248 µM | 9.69 µM | 98.2 µM | 1.73 µM | > 100 µM | < 0.01 µM | > 54.2 µM | 0.0321 µM | 0.26 µM | 4.96 µM | > 81.9 µM | 0.0409 µM | 35.6 µM | 0.0125 µM | 57.5 µM | 0.0761 µM | > 100 µM
COc1c2c(c(CC=C(C)C)c3oc(=O)c(-c4ccc(O)cc4)c(O)c13)OC(C)(C)C=C2 |  | > 100 µM |  | 46.6 µM |  | > 100 µM |  | > 100 µM |  | > 100 µM |  | 58.7 µM |  | > 100 µM |  | 44.9 µM |  | 48.1 µM |  | > 100 µM
CN[C@@H]1C[C@H]2O[C@@](C)([C@@H]1OC)n1c3ccccc3c3c4c(c5c6ccccc6n2c5c31)C(=O)N[C@H]4O | 0.0268 µM | 0.26 µM | 0.0134 µM | 0.231 µM | 0.0149 µM | 1.14 µM | 0.0958 µM | 0.722 µM | 0.0827 µM | 1.38 µM | 0.00753 µM | 0.0613 µM | 0.0191 µM | 0.143 µM | 0.0188 µM | 0.102 µM | 0.0722 µM | 0.974 µM | 0.104 µM | > 5.91 µM
COc1ccc2c(c1)c1nc3cc(C)c(C)cc3nc1n2CCN(C)C | 0.677 µM | 1.95 µM | 0.884 µM | 2.48 µM | 1.04 µM | 2.48 µM | 0.678 µM | 2.32 µM | 0.529 µM | 1.94 µM | 0.308 µM | 2.12 µM | 1.77 µM | 6.23 µM | 0.464 µM | 1.97 µM | 1.07 µM | 2.58 µM | 0.405 µM | 1.73 µM
Clc1cccc(N2CCN(CCN3CCc4c([nH]c5ccccc45)C3c3cccnc3)CC2)c1 (stereo not drawn) |  | > 100 µM |  | > 100 µM |  | > 100 µM |  | > 100 µM |  | > 80.4 µM |  | > 86.3 µM |  | > 100 µM |  | > 100 µM |  | > 76.9 µM |  | > 100 µM
COc1cc2c(cc1OC)-c1ccc3cc4c(cc3c1N(CCN(C)C)C2)OCO4 | 0.4 µM | 8.28 µM | 0.403 µM | 5.4 µM | 0.411 µM | 6.06 µM | 0.4 µM | 11.9 µM | 0.265 µM | 1.64 µM | 0.859 µM | 7.94 µM | 1.68 µM | 13.7 µM | 0.943 µM | 3.25 µM | 1.29 µM | 2.87 µM | 0.522 µM | 2.58 µM
CCCOC(=O)N[C@H]1CCc2cc(OC)c(OC)c(OC)c2-c2ccc(SC)c(=O)cc21 | < 0.01 µM | 6.77 µM | < 0.01 µM | > 61.2 µM | < 0.01 µM | > 100 µM | < 0.01 µM | > 100 µM | < 0.01 µM | > 39.4 µM | < 0.0182 µM | 16.1 µM | < 0.01 µM | > 100 µM | < 0.01 µM | > 100 µM | < 0.01 µM | 4.92 µM | < 0.01 µM | 21.5 µM
OC(C1CO1)C(O)C1CO1 (stereo not drawn) | 11.9 µM and 1.59 µM | 123 µM and 126 µM |  | 72.1 µM and 130 µM | 76.1 µM | 150 µM and 220 µM | 107 µM | 139 µM and 334 µM | 97.7 µM | 150 µM and 345 µM | 56.1 µM | 146 µM and 219 µM | 39.3 µM | 150 µM and 392 µM | 129 µM | 149 µM and 327 µM | 60.5 µM | 87.9 µM and 138 µM | 52.4 µM and 93 µM | 150 µM and 458 µM
CN1C(=O)C(=Cc2cn(Cc3ccccc3)c3ccccc23)C(=O)N(C)C1=O | 0.732 µM | > 100 µM | 1.87 µM | > 35.3 µM | 27 µM | > 100 µM | > 100 µM | > 100 µM | > 78.8 µM | > 100 µM | 14.7 µM | > 70.9 µM | 17.8 µM | > 81.5 µM | 1.64 µM |  | > 33.7 µM | > 70.8 µM | > 92.4 µM | > 100 µM
O=C1NC(=O)C(c2ccc(Cl)cc2)=C1Nc1ccc(Cl)c(C(=O)O)c1 | > 25 µM | > 25 µM | > 25 µM | > 25 µM | > 25 µM | > 25 µM | > 25 µM | > 25 µM | > 25 µM | > 25 µM | > 25 µM | > 25 µM | > 25 µM | > 25 µM | > 25 µM | > 25 µM | > 25 µM | > 25 µM | > 25 µM | > 25 µM
COc1cc(-c2csc(NC(=O)Nc3cc(C(F)(F)F)cc(C(F)(F)F)c3)n2)cc(OC)c1OC | 1.83 µM | 5.46 µM | 1.59 µM | 4.53 µM | 1 µM | 7.55 µM | 3.56 µM | 15.7 µM | 2.67 µM | 11.2 µM | 1.35 µM | 4.36 µM | 2.24 µM | 6.9 µM | 4.25 µM | 18.1 µM | 3.81 µM | 14.4 µM | 3.21 µM | 14.6 µM
C[n+]1c2ccccc2c(Nc2ccc(NS(=O)(=O)CCCCN=C(N)N)cc2)c2ccc(N)cc21 | 0.0785 µM | > 100 µM | 0.917 µM | 22.4 µM | 8.47 µM | > 100 µM | 0.444 µM | > 100 µM | 1.02 µM | 84.5 µM | 1.92 µM | 52.9 µM | 2.79 µM | 52.3 µM | 2.92 µM | > 100 µM | 8.97 µM | > 100 µM | 4.88 µM | > 100 µM
Clc1ccc(C(c2ccc(Cl)cc2)N2CCNCC2)cc1 |  | 5.74 µM |  | 3.55 µM |  | 7.15 µM |  | 21.3 µM |  | 4.51 µM |  | 10.6 µM |  | 7.89 µM |  | 3.17 µM |  | 3.05 µM |  | 4.96 µM

Reference: PubChem BioAssay (NCI)
